Assay results reported in patent publication US20260069699A1, “Hybrid Curcumin Conjugates And Methods Of Use Thereof” (AUGUSTA UNIVERSITY RESEARCH INSTITUTE, INC., priority 2020, published 2026).

Columns and labels:
[1] = tested on: T47D cells; experiment: MTT cell proliferation assay, T47D cells; format: cell-based, human; details: 72 h
Method: (§1) We tested the antitumor potential of All the synthesized six DCA-curcumin hybrid conjugates (CMC 1-CMC 6) with two different human breast cancer cell lines [T47D, an ER-positive BC cell line and MDA-MB231 (MB231), a triple-receptor negative BC (TNBC) cell line] using the colorimetric MTT (3-(4,5-dimethylthiazol-2yl)-2,5-diphenyltetrazolium bromide) cell proliferation assay kit.
(§2) […] and MB231 cells (5×10^3) were seed in 96-well plates and left them in the cell culture incubator at 37° C. with 5% CO2 in DMEM and RPMI medium (100 μl), respectively. After 24 h, the medium was replaced with the CMC compounds at different concentrations (0, 1, 5, and 10 μM) for 72 h. After 72 h, 10 μl Reliablue reagent was added to each well and incubated for 2 h for the formation of purple formazan and then added 100 μl of detergent to dissociate the formazan precipitate and measured at 570 nm. Values are shown as mean±SEM of three experiments with 6 wells in each, a total of 18 repeats.

[2] = tested on: MDA-MB231 (MB231) cells; experiment: MTT cell proliferation assay, MB231 cells; format: cell-based, human
Method: as §1, §2

[3] = tested on: FVB/N mice; experiment: Adverse effects and toxicity in normal mice; format: in vivo, mouse; details: oral gavage 50 and 100 mg/kg body, 7 days
Method: Adverse effects and toxicity to the normal cells are the most challenging part of the anticancer drug development process. […] The body weight and any side effects of contraindication monitored during the period.
Control mice received PBS. After one weak of drug administration, mouse weight was measured every day for 7 days. We used 3 mice in each group. (A) Body weight changes in control mice (B and C) Body weight changes in CMC1 (50 and 100 mg/kg body). (D and E) Body weight changes in CMC1 (50 and 100 mg/kg body) Computational Studies: […]

[4] = tested on: MMTV-PyMT-Tg mice; experiment: Tumor growth in genetically engineered mouse (GEM) model of breast cancer; format: in vivo; details: 10 mg/kg body, three times a week by oral gavage for 7 weeks
Method: The antitumor potential of one of the most potential CMC compound, CMC2, in genetically engineered mouse (GEM) model of breast cancer, MMTV-PyMT-Tg mice was tested. The MMTV-PyMT-Tg mouse was mainly chosen because the tumor formation and progression in this mouse is characterized by four different stages (hyperplasia, adenoma/mammary intra-epithelial neoplasia, early and late carcinoma) and also mimics human breast cancer, the tumor develops first as ER-positive (ER^+) but ultimately becomes ER-negative BC (ER^− BC).
It was randomly assigned 6-week-old MMTV-PyMT-Tg mice into two groups (3 mice in each); one control and one CMC2 treated (10 mg/kg body, three times a week by oral gavage for 7 weeks). Tumor volume was measured twice a week and the volume was calculated using the formula V=L×W^2/2, where L represents the largest tumor diameter and W represents the smallest tumor diameter. After the experimental period, tumor tissues were collected, a picture was taken, and tumor weight was measured. Tissue sections were prepared from the tumor tissue and stained for Hematoxylin and Eosin (H & E) section and also stained for the Ki67 for cell proliferation. Tissue sections and H & E sections were prepared from the Augusta University Histology core facility.
Six-week-old MMTV-PyMT-Tg mice were treated with CMC2 (10 mg/kg body for 3× a week for 7 weeks. Control mice received PBS. Tumor volume was measured twice a week and calculated (A). After the experimental period, tumor size (B) and tumor weight (C) were also analyzed. Tissue sections were prepared and stained with H & E and Ki67 (D). Values are shown as mean±SD of three mice in each.

EC50 [1] [nM]	EC50 ([2]; 72 h) [nM]	EC50 ([2]; Homo sapiens, MDA-MB-231, 72 h) [nM]	Compound	contraindication / side effects [3]	mouse growth (body weight) [3]	tumor growth (tumor volume) [4]	tumor size [4]	tumor weight [4]
		424	COc1cc(/C=C/C(=O)/C=C(O)/C=C/c2ccc(OC(=O)C(Cl)Cl)c(OC)c2)ccc1OC(=O)C(Cl)Cl [CMC 1]	no contraindication	normal			
1240	838		COc1cc(/C=C/C(=O)/C=C(O)/C=C/c2ccc(OC(=O)[C@H](Cc3ccccc3)NC(=O)C(Cl)Cl)c(OC)c2)ccc1OC(=O)[C@H](Cc1ccccc1)NC(=O)C(Cl)Cl [CMC 5]					

The remaining lines, values behind:

Compound	EC50 [1] [nM]	EC50 ([2]; 72 h) [nM]	EC50 ([2]; Homo sapiens, MDA-MB-231, 72 h) [nM]	contraindication / side effects [3]	mouse growth (body weight) [3]	tumor growth (tumor volume) [4]	tumor size [4]	tumor weight [4]
COc1cc(/C=C/C(=O)/C=C(O)/C=C/c2ccc(OC(=O)CCCNC(=O)C(Cl)Cl)c(OC)c2)ccc1OC(=O)CCCNC(=O)C(Cl)Cl [CMC 6]	1370	942						
COc1cc(/C=C/C(=O)/C=C(O)/C=C/c2ccc(OC(=O)CCNC(=O)C(Cl)Cl)c(OC)c2)ccc1OC(=O)CCNC(=O)C(Cl)Cl [CMC 4]	1260	1130						
COc1cc(/C=C/C(=O)/C=C(O)/C=C/c2ccc(OC(=O)CNC(=O)C(Cl)Cl)c(OC)c2)ccc1OC(=O)CNC(=O)C(Cl)Cl [CMC 2]	1420	778		no contraindication	normal	significantly reduced	significantly reduced	significantly reduced
COc1cc(/C=C/C(=O)/C=C(O)/C=C/c2ccc(OC(=O)[C@H](C)NC(=O)C(Cl)Cl)c(OC)c2)ccc1OC(=O)[C@H](C)NC(=O)C(Cl)Cl [CMC 3]	1600	518						
